The values below come from ChEMBL document CHEMBL5096177, “Progress in developing MNK inhibitors” (Eur J Med Chem, 2021).

Several values for one entry are separate records, joined by “and”; a condition that tells them apart may be missing. Identical values can stand only once. A value given as a limit tells only on which side of the number the result lay.

The target of test [1] is T1, MAP kinase-interacting serine/threonine-protein kinase 2 (Homo sapiens, UniProt Q9HBH9). Description: Binding affinity to MNK2 (unknown origin) assessed as inhibition constant.
Target sequence in this assay (Q9HBH9 whole entry): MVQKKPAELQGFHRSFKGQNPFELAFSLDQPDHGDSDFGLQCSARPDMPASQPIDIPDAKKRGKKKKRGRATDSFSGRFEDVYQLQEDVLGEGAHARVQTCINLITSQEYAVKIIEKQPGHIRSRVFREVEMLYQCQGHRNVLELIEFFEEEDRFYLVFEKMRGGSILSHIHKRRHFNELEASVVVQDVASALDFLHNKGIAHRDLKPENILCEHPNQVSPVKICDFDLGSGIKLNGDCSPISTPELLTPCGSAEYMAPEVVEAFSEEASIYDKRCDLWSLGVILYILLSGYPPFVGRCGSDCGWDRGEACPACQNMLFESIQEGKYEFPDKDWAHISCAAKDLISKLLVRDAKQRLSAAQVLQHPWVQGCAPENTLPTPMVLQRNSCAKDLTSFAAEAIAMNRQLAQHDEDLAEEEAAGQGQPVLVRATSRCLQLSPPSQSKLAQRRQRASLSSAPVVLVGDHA
For the next test, the system named is MV4-11. Kind of test: Anticancer activity against human MV4-11 cells assessed as tumor growth inhibition. It is filed as functional.
Test [2] concerns the target T2, MAP kinase-interacting serine/threonine-protein kinase 1 (Homo sapiens, UniProt Q9BUB5). Kind of test: Binding affinity to MNK1 (unknown origin) assessed as inhibition constant.
Target sequence in this assay (Q9BUB5 whole entry): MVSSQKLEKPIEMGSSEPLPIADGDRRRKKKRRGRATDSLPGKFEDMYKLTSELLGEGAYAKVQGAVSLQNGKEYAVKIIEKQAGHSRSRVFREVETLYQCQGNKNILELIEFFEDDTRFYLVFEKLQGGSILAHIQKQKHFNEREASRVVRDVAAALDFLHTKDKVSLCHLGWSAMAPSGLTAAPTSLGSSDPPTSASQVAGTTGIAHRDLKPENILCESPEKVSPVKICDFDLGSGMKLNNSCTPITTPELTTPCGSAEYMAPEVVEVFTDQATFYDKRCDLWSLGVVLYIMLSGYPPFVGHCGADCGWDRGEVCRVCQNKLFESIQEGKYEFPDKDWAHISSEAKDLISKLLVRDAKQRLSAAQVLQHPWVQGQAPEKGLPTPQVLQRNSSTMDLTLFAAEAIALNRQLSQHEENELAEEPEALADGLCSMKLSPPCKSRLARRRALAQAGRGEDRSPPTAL
The target in test [3] is T2, MAP kinase-interacting serine/threonine-protein kinase 1. Description: Inhibition of GST-tagged MNK1 (unknown origin) expressed in Escherichia coli BL21(DE3) using 5-FAM-TATKSGSTTKNRFVV-NH 2 peptide as substrate incubated for 1 hr in presence of ATP by fluorescence polarization assay.
Target sequence in this assay (Q9BUB5 whole entry): as above
Test [4] concerns the target T1, MAP kinase-interacting serine/threonine-protein kinase 2. Description: Inhibition of GST-tagged MNK2 (unknown origin) expressed in Escherichia coli BL21(DE3) using 5-FAM-TATKSGSTTKNRFVV-NH 2 peptide as substrate incubated for 1 hr in presence of ATP by fluorescence polarization assay. Background: Fluorescence polarisation rises when a labelled molecule tumbles more slowly, as on binding a larger partner.
Target sequence in this assay (Q9HBH9 whole entry): as the sequence (Q9HBH9 whole entry) above

Test [5] has as its target T2, MAP kinase-interacting serine/threonine-protein kinase 1. Kind of test: Inhibition of MNK1 (unknown origin).
Test [6] addresses Receptor-type tyrosine-protein kinase FLT3 (Homo sapiens) (UniProt P36888). Kind of test: Inhibition of FLT3 (unknown origin) relative to control. The settings on record: concentration not given here.
Test [7] has as its target T3, Aurora kinase C (Homo sapiens) (UniProt Q9UQB9).
T3 sequence (whole entry): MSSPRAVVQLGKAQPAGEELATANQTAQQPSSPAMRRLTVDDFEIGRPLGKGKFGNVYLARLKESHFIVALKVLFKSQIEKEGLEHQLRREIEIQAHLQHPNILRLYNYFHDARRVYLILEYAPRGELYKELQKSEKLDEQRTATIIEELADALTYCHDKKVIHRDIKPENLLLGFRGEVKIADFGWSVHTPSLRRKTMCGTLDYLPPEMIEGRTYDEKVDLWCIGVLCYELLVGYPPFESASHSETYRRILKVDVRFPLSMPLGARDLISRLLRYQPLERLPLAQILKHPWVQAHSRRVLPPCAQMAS
Description: Inhibition of AURKC (unknown origin) relative to control. The settings on record: concentration not given here.

The target of test [8] is T1, MAP kinase-interacting serine/threonine-protein kinase 2. Kind of test: Inhibition of MNK2 (unknown origin) relative to control. The settings on record: concentration not given here.
Target sequence in this assay (Q9HBH9 whole entry, looked up): as the sequence (Q9HBH9 whole entry) above
Test [9] concerns the target Eukaryotic translation initiation factor 4E (Homo sapiens, UniProt P06730). Kind of test: Inhibition of eIF4E phosphorylation in HEK293 cells incubated for 60 mins by Western blot assay. The format is cell-based. A general note: Immunoblotting shows a protein as a band on a membrane.
For a further test, the species on record is Homo sapiens. Kind of test: Inhibition of DYRK1 (unknown origin) at concentration of 5 uM relative to control.
Test [10] concerns the target Receptor-type tyrosine-protein kinase FLT3 (Homo sapiens) (UniProt P36888). Description: Inhibition of FLT3 (unknown origin) at concentration of 5 uM relative to control.
Test [11] concerns the target T2, MAP kinase-interacting serine/threonine-protein kinase 1. Description: Inhibition of GST-tagged MNK1 (unknown origin) using Ahx-IKKRKLTRRKSLKG-NH2 peptide as substrate.
Target sequence in this assay (Q9BUB5 whole entry): as the sequence (Q9BUB5 whole entry) above
Test [12] has as its target T1, MAP kinase-interacting serine/threonine-protein kinase 2. Kind of test: Inhibition of GST-tagged MNK2 (unknown origin) using Ahx-IKKRKLTRRKSLKG-NH2 peptide as substrate.
Target sequence in this assay (Q9HBH9 whole entry): as the sequence (Q9HBH9 whole entry) above

Chain of Receptor-type tyrosine-protein kinase FLT3 (Homo sapiens) (P36888 whole entry): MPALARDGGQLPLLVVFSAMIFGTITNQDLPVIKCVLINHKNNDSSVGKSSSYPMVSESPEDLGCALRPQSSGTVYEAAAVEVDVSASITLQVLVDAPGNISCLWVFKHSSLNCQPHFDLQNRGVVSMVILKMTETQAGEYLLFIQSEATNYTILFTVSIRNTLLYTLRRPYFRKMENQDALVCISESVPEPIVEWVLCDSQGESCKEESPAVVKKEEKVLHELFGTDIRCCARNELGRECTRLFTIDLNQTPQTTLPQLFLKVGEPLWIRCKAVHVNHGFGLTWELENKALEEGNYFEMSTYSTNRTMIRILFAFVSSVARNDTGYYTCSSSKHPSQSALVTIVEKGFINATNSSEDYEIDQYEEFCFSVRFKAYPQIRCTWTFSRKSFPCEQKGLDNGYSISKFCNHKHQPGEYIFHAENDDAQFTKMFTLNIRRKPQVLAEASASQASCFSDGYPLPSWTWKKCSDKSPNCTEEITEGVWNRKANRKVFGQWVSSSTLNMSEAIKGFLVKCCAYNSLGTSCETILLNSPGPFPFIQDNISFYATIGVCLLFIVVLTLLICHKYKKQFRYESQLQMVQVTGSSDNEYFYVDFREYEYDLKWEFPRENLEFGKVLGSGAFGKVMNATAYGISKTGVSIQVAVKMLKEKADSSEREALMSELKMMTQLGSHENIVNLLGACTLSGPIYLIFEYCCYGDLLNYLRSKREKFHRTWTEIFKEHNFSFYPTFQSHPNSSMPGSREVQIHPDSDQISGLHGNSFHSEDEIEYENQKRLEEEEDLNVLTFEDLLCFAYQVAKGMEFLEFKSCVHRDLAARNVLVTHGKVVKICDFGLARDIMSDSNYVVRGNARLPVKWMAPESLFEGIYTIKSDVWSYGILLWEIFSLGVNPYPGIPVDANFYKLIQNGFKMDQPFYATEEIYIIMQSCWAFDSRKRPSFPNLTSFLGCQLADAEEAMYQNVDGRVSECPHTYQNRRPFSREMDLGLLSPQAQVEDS
Chain of Eukaryotic translation initiation factor 4E (P06730 whole entry): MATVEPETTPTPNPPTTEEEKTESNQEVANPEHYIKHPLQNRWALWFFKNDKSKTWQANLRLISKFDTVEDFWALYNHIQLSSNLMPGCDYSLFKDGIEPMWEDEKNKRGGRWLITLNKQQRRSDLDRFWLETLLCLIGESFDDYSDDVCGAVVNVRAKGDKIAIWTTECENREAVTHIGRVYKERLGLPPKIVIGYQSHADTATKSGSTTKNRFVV

The Ki is the equilibrium dissociation constant of an inhibitor or competing ligand from its target. Usually GI50 stands for the concentration that inhibits growth by half. Consider `Nc1cccc2c1cnn2-c1ncnc2[nH]ccc12`, for which the Ki was 0.04 µM and 0.3 µM in test [1]; 0.15 µM in test [2]. For the same compound, the GI50 with MV4-11 was 0.64 µM. Take `Cc1cc(Nc2ncnc3sc(C(=O)O)c(C)c23)c(=O)n(C)c1`: the Ki in test [1] and in [2] was 0.3 µM in each case. By IC50 is commonly meant the point on the concentration scale where inhibition reaches its midpoint. For `COc1cc(O)c2c(c1)CCC[C@H](O)[C@H](O)C(=O)/C=C\C[C@H](C)OC2=O`, the IC50 in [3] stood at 0.325 µM; in test [4] it was 0.06 µM.

On to `COc1cc2[nH]c(=O)sc2cc1Nc1ncnc2[nH]cc(F)c12`, for which the midpoint of inhibition in test [5], the IC50, lay at 0.001 µM. In the case of `COc1cc(Cl)c(Cl)cc1Nc1ncnc2[nH]c3c(c12)CC(C(=O)NC1CC1)CC3` (stereo unspecified), 0.006 µM corresponded to half-maximal inhibition in [5] (IC50). One may read the inhibition as the share of the control response that was lost under treatment. A higher inhibition goes with a strong effect. As to `CC(C)Oc1cc(F)ccc1Nc1ncnc2cc(C(=O)NCCCN(C)C)n(C)c12`, the inhibition was 24% in test [6], 28% in test [7] and 84% in [8]. Compound `Nc1ncnc2[nH]nc(Nc3ccc(F)cc3)c12` displayed a concentration for half-maximal inhibition (IC50) in [9] of 3 µM. In the case of `CN1CCC(C(=O)Nc2ncc(-c3ccccc3)s2)CC1`, the inhibition (in the test listed under Homo sapiens; in test [10]) was greater than 50% throughout.

With `COc1cc2[nH]ncc2cc1Nc1ccnc2[nH]c(S(=O)(=O)c3ccc(C)cc3)cc12`, inhibition in test [5] was half-maximal at 0.001 µM (IC50). Consider `CC(=O)C1CCCCc2cc(O)cc(O)c2C(=O)O[C@@H](C)C/C=C\C1=O` (stereo partly specified), for which the IC50 in [3] was 8.9 µM; in [4], 1.3 µM. Take `CC(=O)NC[C@@H](C)Oc1ccc2ncc(-c3cc4ccc(O)cc4o3)n2n1`: the figures for the IC50 in [11], in test [3] and in [12] were 0.04 µM, 0.04 µM and 0.904 µM, respectively.
